We go through 16 compounds from patent US11999728B2, “Estrogen receptor modulators” (Recurium IP Holdings, LLC, priority 2020, dated 2024).

SMILES strings stand for the structures.

A short description of data set [1]: Pharmacokinetic Determination (Mouse PK). The format is in vivo, female CD-1 mice. The note with it: female; for Kp at 2 h: CD-1, PO 10.0 mg/kg, Brain concentration vs plasma concentration at 2 hours post dosing, read-out: B/P ratio; for AUC(0-t) / clearance / half-life / Vd / bioavailability / Cmax / Tmax: CD-1, plasma; for Vd: read-out: Vdss; for bioavailability: PO 10.0 mg/kg vs IV 3.0 mg/kg. The method, then:
Pharmacokinetic Determination
Grouping female CD-1 mice weighing 20-30 g randomly to three groups; one group was administered with test compound at a dose of 3.0 mg/kg by intravenous injection, the other two groups were administered with test compound at a dose of 10.0 mg/kg by oral. The formulation for IV groups is DMSO/PEG400/30% HP-β-CD (5/20/75) and the formulation for PO groups is 25% HP-β-CD in 25 mM citrate buffer (pH3.0). After administering, blood samples of intravenous injection group were collected at time points of predose, 0.0833, 0.25, 0.5, 1, 2, 4, 8, 12 and 24 h; blood samples of oral group were collected at time points of predose, 0.25, 0.5, 1, 2, 4, 8, 12, and 24 h. Both blood samples and brain samples were collected at 2 hours post dosing for the second PO group. Standard curve was plotted based on concentrations of the samples in a suitable range, the concentrations of test compounds in plasma samples and brain samples were determined by using LC-MS/MS. Pharmacokinetic parameters were calculated according to drug concentration-time curve using a noncompartmental method by WinNonLin (Phoenix™, version 6.1) or other similar software.

The subject of the next data set is MCF7. The data set can be described thus: Breast Cancer Cell Proliferation Assay (MCF-7), Cell Titer-Glo. It counts as cell-based. Conditions: Homo sapiens, MCF7 cells, 5 days of compound exposure. The protocol: Breast Cancer Cell Proliferation Assay (MCF-7)
MCF7 was expanded and maintained in the medium (Phenol red free DMEM/F12 (Hyclone SH30272.01) NEAA (Gibco11140-050) Na-pyruvate (Gibco 11360-070) and Re-stripped Charcoal stripped FBS (Gemini 100-119)). The cells were adjusted to a concentration of 3,000 cells per mL in the above media, and the cells were incubated (37° C., 5% CO2). The following day a 10-point, serial dilution of compounds was added to the cells at a final concentration ranging from 10-0.000005 μM for test compounds (17β-estradiol was used as a control). Additional cells were plated in 30 wells to serve as the day 1 (pretreatment) comparison. After 5 days of compound exposure, Cell Titer-Glo reagent was added to the cells and the relative luminescence units (RLUs) of each well was determined. Cell Titer-Glo was also added to 32 μL of medium without cells to obtain a background value. The plates were allowed to incubate at room temperature for 10 minutes to stabilize luminescent signal and the luminescence signal was recorded with EnSpire. The relative increase in cell number of each sample is determined as follows: (RLU sample-RLU background/RLU estrogen only treated cells-RLU background)×100=% inhibition.

As to `C[C@@H]1Cc2c([nH]c3ccccc23)[C@@H](c2c(F)cc(NC3CN(CCCF)C3)cc2F)N1C12CC(C1)C2` [Compound 1, N-(4-((1R,3R)-2-(bicyclo[1.1.1]pentan-1-yl)-3-methyl-2,3,4,9-tetrahydro-1H-pyrido[3,4-b]indol-1-yl)-3,5-difluorophenyl)-1-(3-fluoropropyl)azetidin-3-amine], in data set [1], the Kp at 2 h amounted to 11 and the bioavailability is 52.4%. Besides, in data set [1] (IV, 3.0 mg/kg), the AUC(0-t) is 2.79 µM·h, the clearance stood at 24.2 mL/min/kg, the half-life was 18 h and the Vd came out at 31.9 L/kg. For the same compound, in data set [1] (PO, 10.0 mg/kg), the AUC(0-t) was found to be 4.88 µM·h, the peak level (Cmax) was 466 nM, the Tmax turned out to be 2 h and the half-life is 10.5 h. For the same compound, in the data set with MCF7 (120 h), the IC50 is no more than 25 nM.
Regarding `C[C@@H]1Cc2c([nH]c3ccccc23)[C@@H](c2ccc(O[C@H]3CCN(CCCF)C3)nc2)N1C12CC(C1)C2` (single isomer, unassigned) [Compound 10], in data set [1], the Kp at 2 h is 7.51 and the bioavailability turned out to be 15.3%. Also, in data set [1] (IV, 3.0 mg/kg), the AUC(0-t) stood at 1.03 µM·h, the clearance stood at 101 mL/min/kg, the half-life is 2.19 h and the Vd came to 12.8 L/kg. Also, in data set [1] (PO, 10.0 mg/kg), the AUC(0-t) was 0.527 µM·h, the Cmax is 178 nM, the Tmax was 0.5 h and the half-life is 2.12 h. The compound also came in with an IC50 in the data set on MCF7 (MCF7, 120 h) of no more than 25 nM.
For `C[C@@H]1Cc2c([nH]c3ccccc23)[C@@H](c2ccc(NC3CN(CCCF)C3)cc2)N1C12CC(C1)C2` [Compound 40, N-(4-((1R,3R)-2-(bicyclo[1.1.1]pentan-1-yl)-3-methyl-2,3,4,9-tetrahydro-1H-pyrido[3,4-b]indol-1-yl)phenyl)-1-(3-fluoropropyl)azetidin-3-amine], in data set [1], the Kp at 2 h was 13.5 and the bioavailability is 70.5%. In data set [1] (IV, 3.0 mg/kg), the AUC(0-t) stood at 1.47 µM·h, the clearance came out at 64.2 mL/min/kg, the half-life was 11.5 h and the Vd was 49.6 L/kg. Moreover, in data set [1] (PO, 10.0 mg/kg), the AUC(0-t) came out at 3.46 µM·h, the Cmax is 261 nM and the Tmax is 1 h. In the data set on MCF7 (MCF7, 120 h), this compound yielded an IC50 of no more than 25 nM.
`C[C@@H]1Cc2c([nH]c3ccccc23)[C@@H](c2c(F)cc(O[C@@H]3CCN(CCCF)C3)cc2F)N1C12CC(C1)C2` (single isomer, unassigned) [Compound 5]: in data set [1], the Kp at 2 h came to 7.07 and the bioavailability was 49.5%. In data set [1] (IV, 3.0 mg/kg), the AUC(0-t) came to 2.93 µM·h, the clearance stood at 30.2 mL/min/kg, the half-life is 9.1 h and the Vd is 16.7 L/kg. In addition, in data set [1] (PO, 10.0 mg/kg), the AUC(0-t) amounted to 4.84 µM·h, the Cmax is 610 nM, the time to peak (Tmax) amounted to 1 h and the half-life is 9.4 h. In addition, the IC50 in the data set with MCF7 (MCF7, 120 h) lay in the range of 25 to 250 nM.
With `C[C@@H]1Cc2c(ccc3[nH]ncc23)[C@@H](c2ccc(NC3CN(CCCF)C3)cn2)N1CC(F)(F)F` [AZD9833, reference compound], the Kp at 2 h in data set [1] was determined as 0.23. For the same compound, in data set [1] (PO, 10.0 mg/kg), the AUC(0-t) was 4.19 µM·h, the concentration peaked (Cmax) at 649 nM, the Tmax turned out to be 2 h and the half-life was 2.34 h. This compound also registered an IC50 in the data set on MCF7 (MCF7, 120 h) of no more than 25 nM.
On to `C[C@@H]1Cc2c([nH]c3ccccc23)[C@@H](c2ccc(N[C@@H]3CN(CCCF)C[C@H]3F)cc2)N1C12CC(C1)C2` [Compound 75, (3R,4R)—N-(4-((1R,3R)-2-(bicyclo[1.1.1]pentan-1-yl)-3-methyl-2,3,4,9-tetrahydro-1H-pyrido[3,4-b]indol-1-yl)phenyl)-4-fluoro-1-(3-fluoropropyl)pyrrolidin-3-amine], for which, in data set [1], the Kp at 2 h was found to be 6.84 and the bioavailability amounted to 59.2%. For the same compound, in data set [1] (IV, 3.0 mg/kg), the AUC(0-t) was 1.49 µM·h, the clearance is 66.1 mL/min/kg, the half-life is 7.29 h and the Vd was determined as 17.9 L/kg. Moreover, in data set [1] (PO, 10.0 mg/kg), the AUC(0-t) was determined as 2.94 µM·h, the Cmax worked out at 840 nM, the Tmax was determined as 0.5 h and the half-life was 7.38 h. This compound yielded an IC50 in the data set on MCF7 (MCF7, 120 h) of no more than 25 nM.
Take `C[C@@H]1Cc2c([nH]c3ccccc23)[C@@H](c2ccc(NC3CN(CCCF)C3)cc2)N1C12CC(CO)(C1)C2` (single isomer, unassigned) [Compound 58]: in data set [1] (IV, 3.0 mg/kg), the AUC(0-t) was 1.04 µM·h, the clearance amounted to 92 mL/min/kg, the half-life is 7.08 h and the Vd was determined as 42.3 L/kg. This compound also yielded a bioavailability in data set [1] of 31.8%. In addition, in data set [1] (PO, 10.0 mg/kg), the AUC(0-t) turned out to be 1.1 µM·h, the Cmax is 80 nM, the Tmax worked out at 2 h and the half-life is 5.56 h. The same compound displayed an IC50 with MCF7 (MCF7, 120 h) of no more than 25 nM.
`C[C@@H]1Cc2c([nH]c3ccccc23)[C@@H](c2ccc(NC3CN(CCCF)C3)nc2)N1C12CC(C1)C2` [Compound 21, 5-((1R,3R)-2-(bicyclo[1.1.1]pentan-1-yl)-3-methyl-2,3,4,9-tetrahydro-1H-pyrido[3,4-b]indol-1-yl)-N-(1-(3-fluoropropyl)azetidin-3-yl)pyridin-2-amine]: the AUC(0-t) in data set [1] (IV, 3.0 mg/kg) amounted to 0.59 µM·h. The compound also came in with a bioavailability in data set [1] of 5.03%. In data set [1] (PO, 10.0 mg/kg), the area under the curve AUC(0-t) was found to be 0.1 µM·h, the maximum concentration (Cmax) stood at 60 nM, the Tmax was 0.25 h and the half-life was 1.01 h. In the data set on MCF7 (MCF7, 120 h), this compound displayed an IC50 greater than 250 nM.
Turning to `C[C@@H]1Cc2c([nH]c3ccccc23)[C@@H](c2ccc(NC3CN(CCCF)C3)cn2)N1C12CC(C1)C2` [Compound 2, 6-((1S,3R)-2-(bicyclo[1.1.1]pentan-1-yl)-3-methyl-2,3,4,9-tetrahydro-1H-pyrido[3,4-b]indol-1-yl)-N-(1-(3-fluoropropyl)azetidin-3-yl)pyridin-3-amine], in data set [1], the Kp at 2 h was found to be 2.87 and the bioavailability was 43.3%. Moreover, in data set [1] (IV, 3.0 mg/kg), the AUC(0-t) was found to be 1.74 µM·h, the clearance stood at 55.8 mL/min/kg, the half-life was 8.78 h and the Vd turned out to be 31.9 L/kg. For the same compound, in data set [1] (PO, 10.0 mg/kg), the AUC(0-t) worked out at 2.51 µM·h, the highest level (Cmax) was 358 nM, the Tmax is 1 h and the half-life was 7.23 h. The same compound had an IC50 in the data set on MCF7 (120 h) of no more than 25 nM.
With `C[C@@H]1Cc2c([nH]c3ccccc23)[C@@H](c2c(F)cc(NC3CN(CCCF)C3)cc2F)N1C12CC(CO)(C1)C2` (single isomer, unassigned) [Compound 18], in the data set on MCF7 (MCF7, 120 h), the IC50 was no more than 25 nM.
The same measure, in the same setting: then `C[C@@H]1Cc2c([nH]c3ccccc23)[C@@H](c2ccc(NC3CN(CCCF)C3)cc2)N1C12CC(CF)(C1)C2` (single isomer, unassigned) [Compound 62], with no less than 250 nM; and `C[C@@H]1Cc2c([nH]c3ccccc23)[C@@H](c2ccc(N[C@@H]3CN(CCCF)C[C@H]3O)cc2)N1C12CC(C1)C2` (single isomer, unassigned) [Compound 80], with no more than 25 nM; and `C[C@@H]1Cc2c([nH]c3ccccc23)[C@@H](c2ncc(OC3CN(CCCF)C3)cn2)N1C12CC(C1)C2` [Compound 61, (1S,3R)-2-(bicyclo[1.1.1]pentan-1-yl)-1-(5-((1-(3-fluoropropyl)azetidin-3-yl)oxy)pyrimidin-2-yl)-3-methyl-2,3,4,9-tetrahydro-1H-pyrido[3,4-b]indole], with no less than 250 nM.
On the same count and under the same terms, as for `CCCN1CC(Nc2ccc([C@@H]3c4[nH]c5ccccc5c4C[C@@H](C)N3C34CC(C3)C4)cn2)C1` [Compound 30, 5-((1R,3R)-2-(bicyclo[1.1.1]pentan-1-yl)-3-methyl-2,3,4,9-tetrahydro-1H-pyrido[3,4-b]indol-1-yl)-N-(1-propylazetidin-3-yl)pyridin-2-amine], the figure is no less than 250 nM; as for `CCCN1CC[C@H](Nc2cnc([C@@H]3c4[nH]c5ccccc5c4C[C@@H](C)N3C34CC(C3)C4)cn2)C1` [Compound 54, 5-((1S,3R)-2-(bicyclo[1.1.1]pentan-1-yl)-3-methyl-2,3,4,9-tetrahydro-1H-pyrido[3,4-b]indol-1-yl)-N—((S)-1-propylpyrrolidin-3-yl)pyrazin-2-amine], no more than 25 nM; as for `C[C@@H]1Cc2c([nH]c3ccccc23)[C@@H](c2ccc(N[C@H]3CN(CCCF)C[C@@H]3O)cc2)N1C12CC(C1)C2` (single isomer, unassigned) [Compound 79], 25 to 250 nM.
